Experimental data: US5342942A, “Pyrazoloquinazolone derivatives as neurotrophic agents” (Warner-Lambert Company, priority 1993, dated 1994)
Where a name gives a salt, the structure may show the parent alone.

Target: T1, extracellular domain of the p75 receptor (Homo sapiens, UniProt P01138)
T1 construct: purchased Chiron Corporation, Emeryville, Calif; (originally); also commercially available from Austral Biologicals, Inc. (San Diego, Calif.)
Experiment: inhibition of ^125 I-NGF binding to the extracellular domain of the p75 receptor (truncated form, residues 1-222, microtiter plate)
Details: FIG. 1, result in words
Procedure: (§1) Assays of novel compounds are performed by measuring the compounds' ability to inhibit the binding of NGF to the NGF p75 receptor, using a truncated form (Residues 1-222, molecular weight=56 KDa) of the p75 receptor, originally obtained from Chiron Corporation, Emeryville, Calif., but also commercially available from Austral Biologicals, Inc. (San Diego, Calif.), on plastic 96-well microtiter plates (Immulon 11 Dynatech). The wells are coated with 50 μL/well of 20 μg/mL streptavidin in a […] (DPBS). The plates are then incubated at room temperature for 6 hours. The excess streptavidin is then poured out, the wells are washed with a 0.1% solution of bovine serum albumin (BSA) in DPBS. To each well is then added 50 μg/mL of a DPBS solution containing the truncated p75 receptor, which has previously been reacted with biotin by standard procedures. The plates are then incubated at room temperature for 2 hours and washed with 0.2% BSA/DPBS. To each well is added 98 μL of 2 nM ^125 I-NGF, followed by 2 μL/well of a concentration of test compound that is 50 times greater than the desired final test concentration. The plates are incubated for 2 hours at room temperature. The assay is read as the IC50, the concentration of compound that blocks 50% of the binding of ^125 I-NGF to the p75 receptor. […]

T1 sequence (P01138 122-241): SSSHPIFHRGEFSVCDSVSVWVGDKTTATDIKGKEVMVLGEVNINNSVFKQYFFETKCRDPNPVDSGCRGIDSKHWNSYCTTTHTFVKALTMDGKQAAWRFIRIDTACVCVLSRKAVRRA

Compound	prevention of binding of ^125 I-NGF to the extracellular domain of p75
Cn1c2ccc(NC(=O)c3ccccc3)cc2c(=O)n2nc(C(=O)O)cc12 [Example 3, 7-(Benzoylamino)-4,9-dihydro-4-methyl-9-oxopyrazolo-[5,1-b]quinazoline-2-carboxylic acid]	prevents the binding of ^125 I-NGF to the extracellular domain of p75

Target: T2, extracellular domain of the p75 receptor (Homo sapiens)
T2 construct: purchased Chiron Corporation, Emeryville, Calif; (originally); also commercially available from Austral Biologicals, Inc. (San Diego, Calif.)
Experiment: as above
Details: 2 nM ^125 I-NGF, 2 hours at room temperature; read-out: Concentration (IC50, nM): inhibition of ^125 I-NGF binding to the extracellular domain of the p75 receptor
Procedure: as §1

T2 sequence (P01138 122-241): as above

Compound	IC50
Cn1c2ccc(N)cc2c(=O)n2nc(C(=O)O)cc12 [Example 1, 7-Amino-4,9-dihydro-4-methyl-9-oxopyrazolo[5,1-b]-quinazoline-2-carboxylic acid]	1900 nM
Cn1c2ccc(NC(=O)c3cccs3)cc2c(=O)n2nc(C(=O)O)cc12 [Example 3a, 4,9-Dihydro-4-methyl-9-oxo-7-[(2-thienylcarbonyl)amino]pyrazolo[5,1-b]quinazoline-2-carboxylic acid]	690 nM
COc1ccc(C(=O)Nc2ccc3c(c2)c(=O)n2nc(C(=O)O)cc2n3C)cc1 [Example 3c, 4,9-Dihydro-4-methyl-9-oxo-7-[(4-methoxybenzoyl)amino]-pyrazolo[5,1-b]quinazoline-2-carboxylic acid]	10000 nM
Cn1c2ccc(NC(=O)Cc3ccccc3)cc2c(=O)n2nc(C(=O)O)cc12 [Example 3e, 4,9-Dihydro-4-methyl-9-oxo-7-[(phenylacetyl)aminol]-pyrazolo[5,1-b]quinazoline-2-carboxylic acid]	568 nM
Cn1c2ccc(NC(=O)Nc3ccccc3)cc2c(=O)n2nc(C(=O)O)cc12 [Example 3g]	3880 nM
Cn1c2ccc(NC(=O)CCc3ccccc3)cc2c(=O)n2nc(C(=O)O)cc12 [Example 3h, 4,9-Dihydro-4-methyl-9-oxo-7[(1-oxo-3-phenylpropyl) -amino]pyrazolo [5,1-b]quinazoline-2-carboxylic acid]	1710 nM
Cn1c2ccc(NC(=O)c3ccc4ccccc4c3)cc2c(=O)n2nc(C(=O)O)cc12 [Example 3i]	431 nM
Cn1c2ccc(NC(=O)c3ccc(C(C)(C)C)cc3)cc2c(=O)n2nc(C(=O)O)cc12 [Example 3l, 7-[(4-tert-Butylbenzoyl)amino]-4,9-dihydro-4-methyl-9-oxopyrazolo[5,1-b]quinazoline-2-carboxylic acid]	862 nM
Cn1c2ccc(NC(=O)c3ccc(-c4ccccc4)cc3)cc2c(=O)n2nc(C(=O)O)cc12 [Example 3q, 7-[[(1,1'-Biphenyl)-4-ylcarbonyl]amino]-4,9-dihydro-4-methyl-9-oxopyrazolo[5,1-b]quinazoline-2-carboxylic acid]	222 nM
Cc1ccccc1C(=O)Nc1ccc2c(c1)c(=O)n1nc(C(=O)O)cc1n2C [Example 3r, 4,9-Dihydro-4-methyl-7-[(2-methylbenzoyl)amino]-9-oxopyrazolo[5,1-b]quinazoline-2-carboxylic acid]	> 10000 nM
Cn1c2ccc(NC(=O)c3ccc(F)cc3)cc2c(=O)n2nc(C(=O)O)cc12 [Example 3s, 4,9-Dihydro-7-[(4-fluorobenzoyl)amino]-4-methyl-9-oxopyrazolo[5,1-b]quinazoline-2-carboxylic acid]	266 nM
Cc1ccc(C(=O)Nc2ccc3c(c2)c(=O)n2nc(C(=O)O)cc2n3C)cc1I [Example 3u, 4,9-Dihydro-7-[(3-iodo-4-methylbenzoyl)amino]-4-methyl-9-oxopyrazolo[5,1-b]quinazoline-2-carboxylic acid]	~200 nM
Cn1c2ccc(NC(=O)CC(=O)O)cc2c(=O)n2nc(C(=O)O)cc12 [Example 3v, 7-[(Carboxyacetyl)amino]-4,9-dihydro-4-methyl-9-oxopyrazolo[5,1-b]quinazoline-2-carboxylic acid]	1150 nM
Cn1c2ccc(NC(=O)CCCC(=O)O)cc2c(=O)n2nc(C(=O)O)cc12 [Example 3x, 7-[(4-Carboxy-1-oxobutyl)amino]-4,9-dihydro-4-methyl-9-oxopyrazolo[5,1-b]quinazoline-2-carboxylic acid]	36 nM
Cc1ccc(C(=O)Nc2ccc3c(c2)c(=O)n2nc(C(=O)O)cc2n3C)cc1 [Example 7, 4,9-Dihydro-4-methyl-9-oxo-7-[(methylbenzoyl)amino]-pyrazolo[5,1-b]quinazoline-2-carboxylic acid; triethanolamine salt (1:1)]	1160 nM
O=C(O)c1ccc2c(=O)n3nc(C(=O)O)cc3[nH]c2c1 [H H CO2 H]	1100 nM
Cc1ccc2[nH]c3cc(C(=O)O)nn3c(=O)c2c1 [H Me H]	12900 nM
Nc1ccc2[nH]c3cc(C(=O)O)nn3c(=O)c2c1 [H NH2 H]	338 nM
CC(=O)Nc1ccc2c(c1)c(=O)n1nc(C(=O)O)cc1n2C [Me CH3 CONH H]	1700 nM
Cn1c2ccccc2c(=O)n2nc(C(=O)O)cc12 [Me H H]	30800 nM
Cc1ccc2c(c1)c(=O)n1nc(C(=O)O)cc1n2C [Me Me H]	9700 nM

Further molecules by falling IC50, results first:

IC50	Compound
2570 nM	Cn1c2ccc(NC(=O)c3ccc(C(F)(F)F)cc3)cc2c(=O)n2nc(C(=O)O)cc12 [Example 3n, 4,9-Dihydro-4-methyl-9-oxo-7-[[(4-trifluoromethyl)benzoyl]amino]pyrazolo [5,1-b]quinazoline-2-carboxylic acid]
2230 nM	Cn1c2ccc(NC(=O)C34CC5CC(CC(C5)C3)C4)cc2c(=O)n2nc(C(=O)O)cc12 [Example 3m, 4,9-Dihydro-4-methyl-9-oxo-7-[(tricyclo[3.3.1.1^3,7]-dec-1-ylcarbonyl)amino]pyrazolo[5,1-b]quinazoline-2-carboxylic acid]
844 nM	Cn1c2ccc(NC(=O)c3ccc(Cl)c(Cl)c3)cc2c(=O)n2nc(C(=O)O)cc12 [Example 3f, 7-[(3,4-Dichlorobenzoyl)amino]-4,9-dihydro-4-methyl-9-oxopyrazolo[5,1-b]quinazoline-2-carboxylic acid]
748 nM	Cc1cccc(C(=O)Nc2ccc3c(c2)c(=O)n2nc(C(=O)O)cc2n3C)c1 [Example 3p, 4,9-Dihydro-4-methyl-7-[(3-methylbenzoyl)amino]-9-oxopyrazolo[5,1-b]quinazoline-2-carboxylic acid]
472 nM	Cn1c2ccc(NC(=O)c3ccc(I)cc3)cc2c(=O)n2nc(C(=O)O)cc12 [Example 3j, 4,9-Dihydro-7-[(4-iodobenzoyl)amino]-4-methyl-9-oxopyrazolo[5,1-b]quinazoline-2-carboxylic acid]
250 nM	Cn1c2ccc(NC(=O)c3ccc(Cl)cc3)cc2c(=O)n2nc(C(=O)O)cc12 [Example 3d, 7-[(4-Chlorobenzoyl)amino]-4,9-dihydro-4-methyl-9-oxopyrazolo [5,1-b]quinazoline-2-carboxylic acid]
229 nM	Cn1c2ccc(NC(=O)c3ccc([N+](=O)[O-])cc3)cc2c(=O)n2nc(C(=O)O)cc12 [Example 3k, 4,9-Dihydro-4-methyl-7-[(4-nitrobenzoyl)amino]-9-oxopyrazolo[5,1-b]quinazoline-2-carboxylic acid]
228 nM	Cn1c2ccc(NC(=O)c3ccccc3)cc2c(=O)n2nc(C(=O)O)cc12 [Example 3, 7-(Benzoylamino)-4,9-dihydro-4-methyl-9-oxopyrazolo-[5,1-b]quinazoline-2-carboxylic acid]
180 nM	Cc1ccc(C(=O)Nc2ccc3c(c2)c(=O)n2nc(C(=O)O)cc2n3C)cc1 [Example 3b, 4,9-Dihydro-4-methyl-9-oxo-7-[(4-methylbenzoyl)amino]-pyrazolo[5,1-b]quinazoline-2-carboxylic acid]
166 nM	Cn1c2ccc(NC(=O)c3ccc(C(=O)O)cc3)cc2c(=O)n2nc(C(=O)O)cc12 [Example 3t]
116 nM	Cn1c2ccc(NC(=O)CCC(=O)O)cc2c(=O)n2nc(C(=O)O)cc12 [Example 3w, 7-[(3-Carboxy-1-oxopropyl)amino]-4,9-dihydro-4-methyl-9-oxopyrazolo[5,1-b]qruinazoline-2-carboxylic acid]

System: p75
Experiment: inhibition of crosslinking of ^125 I-NGF to p75 (FIG. 4)
Assay type: binding
Details: not given
Source text: (§2) In principle, a compound may inhibit the binding of NGF to the p75 receptor by interacting with either protein. The compounds of the present invention are studied further as exemplified here with the compound of Example 3.

Compound	inhibition of crosslinking of ^125 I-NGF to p75
Cn1c2ccc(NC(=O)c3ccccc3)cc2c(=O)n2nc(C(=O)O)cc12 [Example 3, 7-(Benzoylamino)-4,9-dihydro-4-methyl-9-oxopyrazolo-[5,1-b]quinazoline-2-carboxylic acid]	can inhibit the crosslinking of ^125 I-NGF to p75

System: NGF receptors
Experiment: direct binding to NGF receptors with radioiodinated derivative of Compound 3 (FIG. 5)
Details: utilizing a radioiodinated derivative of Compound 3 (corresponding to Example 3j)
Source text: as §2

direct binding to NGF receptors	Compound
does not bind to NGF receptors directly	Cn1c2ccc(NC(=O)c3ccccc3)cc2c(=O)n2nc(C(=O)O)cc12 [Example 3, 7-(Benzoylamino)-4,9-dihydro-4-methyl-9-oxopyrazolo-[5,1-b]quinazoline-2-carboxylic acid]

System: full length p75 receptor
Experiment: inhibition of ^125 I-NGF binding to full length p75 receptor expressed in CHO cells that lack trk (FIG. 2)
Details: CHO cells that lack trk expression
Source text: as §2

Compound	prevention of binding of ^125 I-NGF to full length p75 receptor
Cn1c2ccc(NC(=O)c3ccccc3)cc2c(=O)n2nc(C(=O)O)cc12 [Example 3, 7-(Benzoylamino)-4,9-dihydro-4-methyl-9-oxopyrazolo-[5,1-b]quinazoline-2-carboxylic acid]	completely prevents binding of ^125 I-NGF to full length p75 receptor

System: PC12 cells that express both p75 and trk
Experiment: inhibition of ^125 I-NGF binding in PC12 cells that express both p75 and trk (FIG. 3)
Details: p75 about 80% and trk about 20% of total NGF receptors
Source text: as §2

Compound	block of ^125 I-NGF binding in PC12 cells
Cn1c2ccc(NC(=O)c3ccccc3)cc2c(=O)n2nc(C(=O)O)cc12 [Example 3, 7-(Benzoylamino)-4,9-dihydro-4-methyl-9-oxopyrazolo-[5,1-b]quinazoline-2-carboxylic acid]	about 80%

System: NGF
Experiment: interaction with NGF bound to a sepharose support (FIG. 6)
Assay type: binding
Details: not given
Source text: as §2

Compound	specific interaction with NGF
Cn1c2ccc(NC(=O)c3ccccc3)cc2c(=O)n2nc(C(=O)O)cc12 [Example 3, 7-(Benzoylamino)-4,9-dihydro-4-methyl-9-oxopyrazolo-[5,1-b]quinazoline-2-carboxylic acid]	specific interaction between Compound 3 and NGF
